“And” between values parts separate entries of the source, which are not always exact repeats. Equal entries are not always repeated. Where two headings read alike, the source gives them in different places.
Tests used:
[1] = Pharmacokinetic analysis of SYN120 tablets, single oral dose (Example 8); assay type: in vivo, human; conditions: for AUC(0-t) / half-life / AUC(0-inf) / Cmax / Tmax: human, plasma; for half-life / CL/F / Vs/F: arithmetic mean ±SD; for half-life: read-out: t1/2 (converted); for Tmax: median, read-out: Tmax
Method: Pharmacokinetic (PK) analysis was performed on 42 subjects (36 males; 6 females) who received SYN120 oral tablets. In this study, subjects received a single oral dose of SYN120 at one of the following doses: 2 mg; 10 mg; 30 mg; 100 mg; 300 mg; and 600 mg. The SYN120 oral tablets used in this study were formulated for immediate release at tablet strengths of 2 mg, 10 mg, and 50 mg. The tablets were formulated using lactose monohydrate, corn starch, sodium starch glycolate, povidone, sodium lauryl sulfate, magnesium stearate, and the coating agent Opadry Yellow. Blood samples were collected at predose and 0.5, 1, 1.5, 2, 3, 4, 6, 8, 12, 16, 24, 32, 36, 48, and 72 hours postdose. During the treatments at 100 mg and higher, the protocol was amended to include an additional blood sample on Study Day 7 (nominal time of 151 hours). Following oral administration, SYN120 absorption was rapid and plasma levels were measurable in all subjects at the first time point (0.5 hours).
Table 14 below provides a summary of the mean PK parameters of plasma SYN120 for all doses.

5-HT2B receptor = 5-HT2B receptor (Homo sapiens, UniProt P41595); conditions: cited from earlier work
5-HT2B receptor, sequence (P41595 whole entry): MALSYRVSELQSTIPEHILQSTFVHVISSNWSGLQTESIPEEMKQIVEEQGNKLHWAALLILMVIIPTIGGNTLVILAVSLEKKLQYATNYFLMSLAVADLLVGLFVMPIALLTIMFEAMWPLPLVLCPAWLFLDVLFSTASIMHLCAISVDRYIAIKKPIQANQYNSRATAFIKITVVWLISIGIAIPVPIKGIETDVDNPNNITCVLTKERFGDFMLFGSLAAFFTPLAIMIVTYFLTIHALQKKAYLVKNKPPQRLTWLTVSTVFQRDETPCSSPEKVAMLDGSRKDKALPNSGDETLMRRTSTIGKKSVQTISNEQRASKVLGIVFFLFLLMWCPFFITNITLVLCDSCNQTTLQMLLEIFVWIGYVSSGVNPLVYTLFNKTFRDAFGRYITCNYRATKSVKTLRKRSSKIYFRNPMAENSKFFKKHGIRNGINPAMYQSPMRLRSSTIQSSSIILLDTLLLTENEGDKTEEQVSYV

[2] = single oral dose 2 mg, Cohort A
[3] = single oral dose 2 mg, Cohort A, geometric mean
[4] = single oral dose 10 mg, Cohort B
[5] = single oral dose 10 mg, Cohort B, geometric mean
[6] = single oral dose 30 mg, Cohort C
[7] = single oral dose 30 mg, Cohort C, geometric mean
[8] = single oral dose 300 mg, Cohort F
[9] = single oral dose 300 mg, Cohort F, geometric mean
[10] = single oral dose 600 mg, Cohort G
[11] = single oral dose 600 mg, Cohort G, geometric mean
[12] = male, oral, 100 mg single dose, males, arithmetic mean
[13] = male, single oral dose 100 mg (males), Cohort D
[14] = male, single oral dose 100 mg (males), Cohort D, geometric mean
[15] = single oral dose 100 mg (females), Cohort E
[16] = single oral dose 100 mg (males), Cohort D

## NC(=O)NC[C@@H]1CCCc2cc(S(=O)(=O)c3cccc(F)c3)ccc21 [SYN120]
[1]; po, 300 mg, single oral dose 300 mg, Cohort F, geometric mean, read-out: AUC0-24
  AUC(0-t): 21300 ng·h/mL
[1]; po, 300 mg, single oral dose 300 mg, Cohort F, geometric mean, read-out: AUC0-t
  AUC(0-t): 27400 ng·h/mL
[1]; po, 600 mg, single oral dose 600 mg, Cohort G, geometric mean, read-out: AUC0-24
  AUC(0-t): 27600 ng·h/mL
[1]; po, 600 mg, single oral dose 600 mg, Cohort G, geometric mean, read-out: AUC0-t
  AUC(0-t): 42500 ng·h/mL
[1]; [2]
  half-life: 11.4 ± 5.11 h
  Tmax: 2.02 h
  CL/F: 18.8 ± 15.2 L/h
  Vs/F: 264 ± 191 L
[1]; [3]
  AUC(0-inf): 146 ng·h/mL
  Cmax: 11.8 ng/mL
[1]; [4]
  half-life: 8.45 ± 2.31 h
  Tmax: 1.76 h
  CL/F: 29.0 ± 15.0 L/h
  Vs/F: 379 ± 283 L
[1]; [5]
  AUC(0-inf): 389 ng·h/mL
  Cmax: 48.7 ng/mL
[1]; [6]
  half-life: 8.92 ± 1.39 h
  Tmax: 2.26 h
  CL/F: 19.2 ± 9.58 L/h
  Vs/F: 253 ± 149 L
[1]; [7]
  AUC(0-inf): 1770 ng·h/mL
  Cmax: 179 ng/mL
[1]; [8]
  half-life: 9.58 ± 3.46 h
  Tmax: 3.53 h
  CL/F: 11.7 ± 4.81 L/h
  Vs/F: 154 ± 57.3 L
[1]; [9]
  AUC(0-inf): 27400 ng·h/mL
  Cmax: 1730 ng/mL
[1]; [10]
  half-life: 12 ± 4.81 h
  Tmax: 4.51 h
  CL/F: 15.7 ± 7.96 L/h
  Vs/F: 246 ± 97.6 L
[1]; [11]
  AUC(0-inf): 42900 ng·h/mL
  Cmax: 2080 ng/mL
[1]; male, oral, 100 mg, 100 mg single dose, males, arithmetic mean, read-out: AUC0-24
  AUC(0-t): 6470 ± 3330 ng·h/mL
[1]; male, oral, 100 mg, 100 mg single dose, males, arithmetic mean, read-out: AUC0-t
  AUC(0-t): 7980 ± 4800 ng·h/mL
[1]; [12]
  AUC(0-inf): 8060 ± 4880 ng·h/mL
  Cmax: 623 ± 180 ng/mL
[1]; male, po, 100 mg, single oral dose 100 mg (males), Cohort D, geometric mean, read-out: AUC0-24
  AUC(0-t): 5870 ng·h/mL
[1]; male, po, 100 mg, single oral dose 100 mg (males), Cohort D, geometric mean, read-out: AUC0-t
  AUC(0-t): 7010 ng·h/mL
[1]; [13]
  half-life: 11 h
  Tmax: 4 h
[1]; [14]
  AUC(0-inf): 7060 ng·h/mL
  Cmax: 604 ng/mL
[1]; [15]
  CL/F: 22.5 L/h and 22.5 ± 11.9 L/h
  Vs/F: 448 L and 448 ± 500 L
[1]; [16]
  CL/F: 15.8 L/h and 15.8 ± 7.56 L/h
  Vs/F: 227 L and 227 ± 94.2 L
5-HT2B receptor
  pKi: 7.7
